Here are results for 21 compounds from PubChem BioAssay AID1259408 (Genetic Toxicology Data Bank (GENE-TOX), 2018).

Activity calls are given as the source filed them. The rule behind the calls is not given here.

This data set deals with GENE-TOX genotoxicity assays, various organisms and cells. Kind of data set: GENE-TOX mutagenicity studies. The settings on record: for call: Assay Type: In vivo carcinogenicity studies.
[1] abbreviates: Species/Cell Type: Escherichia coli polA (W3119 vs P3478), Assay Type: Rec-assay, DNA effects (bacterial DNA repair), Assay Code: RE1+, Evaluation Type: Evaluation A (Pre-1980).
Where [2] appears, read: Species/Cell Type: Mouse, Sex: Male, Assay Type: Sperm morphology, Assay Code: SPI-, Evaluation Type: Evaluation A (Pre-1980).
[3] abbreviates: Species/Cell Type: Nonhuman, Assay Type: Sister-chromatid exchange (SCE) in vitro, Assay Code: SC2+D, Dose Response: With dose response, Evaluation Type: Evaluation B (Post-1980).
[4] abbreviates: Species/Cell Type: Saccharomyces cerevisiae, Assay Type: Mitotic recombination or gene conversion, Assay Code: YEH+, Evaluation Type: Evaluation A (Pre-1980).
Where [5] appears, read: Species/Cell Type: Salmonella typhimurium (one or more of the five standard strains: TA98, TA100, TA1535, TA1537, and TA1538), Assay Type: Histidine reverse gene mutation, Ames assay, Assay Code: SAL+, Evaluation Type: Evaluation A (Pre-1980).
The mark [6] stands for this setting: Species/Cell Type: Salmonella typhimurium, Assay Type: Forward and reverse gene mutation, host-mediated assay, Assay Code: HMA+, Evaluation Type: Evaluation A (Pre-1980).
[7] abbreviates: Species/Cell Type: Syrian hamster embryo (SHE) cells, Assay Type: Cell transformation, clonal assay, Assay Code: CTC+, Evaluation Type: Evaluation A (Pre-1980).
Setting [8] is: Species/Cell Type: Salmonella typhimurium (one or more of the five standard strains: TA98, TA100, TA1535, TA1537, and TA1538), Assay Type: Histidine reverse gene mutation, Ames assay, Assay Code: SAL+*, Activation: With metabolic activation, Evaluation Type: Evaluation A (Pre-1980).
[9] abbreviates: Species/Cell Type: Allium cepa, Assay Type: Chromosome aberrations, Assay Code: ALC+, Evaluation Type: Evaluation A (Pre-1980).
[10] abbreviates: Species/Cell Type: Drosophila melanogaster, Assay Type: Sex-linked recessive lethal gene mutation, Assay Code: SRL+, Evaluation Type: Evaluation A (Pre-1980).
Where [11] appears, read: Species/Cell Type: Saccharomyces cerevisiae, Assay Type: Reverse gene mutation, Assay Code: YER+, Evaluation Type: Evaluation A (Pre-1980).
[12] abbreviates: Species/Cell Type: Salmonella typhimurium (one or more of the five standard strains: TA98, TA100, TA1535, TA1537, and TA1538), Assay Type: Histidine reverse gene mutation, Ames assay, Assay Code: SALT, Evaluation Type: Evaluation A (Pre-1980).

As for `O=[N+]([O-])c1ccc2c(c1)Cc1ccccc1-2`, the mutagenic call was “no conclusion” (Species/Cell Type: Escherichia coli polA (W3110 vs P3478), Assay Type: Rec-assay, DNA effects (bacterial DNA repair), Assay Code: RE2T, Evaluation Type: Evaluation A (Pre-1980)); “active; positive” under setting [1]; “inactive; negative” under setting [2]; “inactive; negative” (Species/Cell Type: Neurospora crassa, Assay Type: Aneuploidy, chromosome aberrations, Assay Code: NEN-, Evaluation Type: Evaluation A (Pre-1980)); “active; positive” under setting [3]; “active; positive” (Species/Cell Type: Nonhuman, Assay Type: Sister-chromatid exchange (SCE) in vivo, Assay Code: SC3+D, Dose Response: With dose response, Evaluation Type: Evaluation B (Post-1980)). Moreover, the mutagenic call was “active; positive” under setting [4], “active; positive” under setting [5], “active; positive” under setting [6] and “active; positive” under setting [7].

As for `Nc1ccc2c(ccc3ccccc32)n1`, the mutagenic call under setting [8] was “active; positive”.

Turning to `c1nnc(NCNc2nncs2)s1`, the mutagenic call (Species/Cell Type: Mammalian polychromatic erythrocytes, Assay Type: Micronucleus test, chromosome aberrations, Assay Code: MNT+U, Dose Response: Unconfirmed positive response, Evaluation Type: Evaluation B (Post-1980)) was “active; positive”.

For the compound `CN(N=O)C(=O)c1ccc(C(=O)N(C)N=O)cc1`, the mutagenic call is, setting by setting: (Species/Cell Type: Arabidopsis species, Assay Type: Gene mutation, Assay Code: ARM-, Evaluation Type: Evaluation A (Pre-1980)) “inactive; negative”; under setting [4], “active; positive”; (Species/Cell Type: Saccharomyces cerevisiae, Assay Type: Reverse gene mutation, Assay Code: YER-, Evaluation Type: Evaluation A (Pre-1980)) “inactive; negative”.

As for `CCCCC/C=C/C=C/C(=O)NCC(C)C`, under setting [9], the mutagenic call was “active; positive”.

On to `COc1nc(OC)nc(N2CC2)n1`, for which the mutagenic call under setting [9] was “active; positive”.

As to `Nc1ccc(N=Nc2ccccc2)cc1`, the mutagenic call was “inactive; negative” (Species/Cell Type: Escherichia coli polA (W3110 vs P3478), Assay Type: Rec-assay, DNA effects (bacterial DNA repair), Assay Code: RE2-, Evaluation Type: Evaluation A (Pre-1980)); “no conclusion” (Species/Cell Type: Escherichia coli polA (W3119 vs P3478), Assay Type: Rec-assay, DNA effects (bacterial DNA repair), Assay Code: RE1T, Evaluation Type: Evaluation A (Pre-1980)); “inactive; negative” (Species/Cell Type: Fischer rat embryo (RLV/1706) cells, Assay Type: Cell transformation, viral enhanced, Assay Code: CTR-, Evaluation Type: Evaluation A (Pre-1980)); “inactive; negative” (Species/Cell Type: Mouse embryo (AKR/ME) cells, Assay Type: Cell transformation, Assay Code: CTK-, Evaluation Type: Evaluation A (Pre-1980)); “active; positive” (Species/Cell Type: Nonhuman, Assay Type: Sister-chromatid exchange (SCE) in vitro, Assay Code: SC2+, Evaluation Type: Evaluation B (Post-1980)); “active; positive” (Species/Cell Type: Nonhuman, Assay Type: Sister-chromatid exchange (SCE) in vivo, Assay Code: SC3+, Evaluation Type: Evaluation B (Post-1980)). Further, the mutagenic call by setting is: (Species/Cell Type: Rat primary hepatocytes, Assay Type: Unscheduled DNA synthesis (UDS) in vitro, DNA effects, Assay Code: UDP+, Evaluation Type: Evaluation A (Pre-1980)) “active; positive”; (Species/Cell Type: Saccharomyces cerevisiae, Assay Type: Mitotic recombination or gene conversion, Assay Code: YEH-, Evaluation Type: Evaluation A (Pre-1980)) “inactive; negative”; under setting [8], “active; positive”; under setting [6], “active; positive”; under setting [7], “active; positive”. Besides, the call (Species/Cell Type: Nonhuman, Assay Code: CCG+L, Evaluation Type: Evaluation A (Pre-1980)) was “active; positive”.

With `CNC(=O)ON=CC(C)(C)SC`, the mutagenic call (Species/Cell Type: Human lymphocytes, Assay Type: Sister-chromatid exchange (SCE) in vitro, Assay Code: SCL+D, Dose Response: With dose response, Evaluation Type: Evaluation B (Post-1980)) is “active; positive” and the mutagenic call (Species/Cell Type: Human, Assay Type: Sister-chromatid exchange (SCE) in vitro, Assay Code: SC1+D, Dose Response: With dose response, Evaluation Type: Evaluation B (Post-1980)) was “active; positive”. Where the note is “Species/Cell Type: Nonhuman, Assay Code: CCG-, Evaluation Type: Evaluation A (Pre-1980)”, the call is “inactive; negative”.

In the case of `CC(C)Cc1ccc(C(C)C(=O)O)cc1` (stereo not drawn), under “Species/Cell Type: Human lymphocytes, Assay Type: Sister-chromatid exchange (SCE) in vivo, Assay Code: SCY+, Evaluation Type: Evaluation B (Post-1980)”, the mutagenic call was “active; positive”.

On to `CC(=O)NS(=O)(=O)c1ccc(N)cc1`, for which the mutagenic call by setting is: (Species/Cell Type: Neurospora crassa, Assay Type: Aneuploidy, chromosome aberrations, Assay Code: NEN+, Evaluation Type: Evaluation A (Pre-1980)) “active; positive”; (Species/Cell Type: Saccharomyces cerevisiae, Assay Type: Aneuploidy, chromosome aberrations, Assay Code: YEN+, Evaluation Type: Evaluation A (Pre-1980)) “active; positive”.

Turning to `CCCN(CCC)S(=O)(=O)c1ccc(C(=O)O)cc1`, the mutagenic call (Species/Cell Type: Saccharomyces cerevisiae, Assay Type: Mitotic recombination or gene conversion, Assay Code: YEC-*, Activation: With metabolic activation, Evaluation Type: Evaluation A (Pre-1980)) is “inactive; negative”.

Turning to `CC(=O)Nc1nnc(-c2ccc([N+](=O)[O-])o2)s1`, the mutagenic call under setting [5] was “active; positive”.

With `[N-]=[N+]=CC(=O)NCC(=O)NN`, under setting [5], the mutagenic call is “active; positive”.

On to `O=C(O)COc1cc(Cl)c(Cl)cc1Cl`, for which the mutagenic call runs as follows: (Species/Cell Type: Drosophila melanogaster, Assay Type: Aneuploidy, sex chromosome gain, chromosome aberrations, Assay Code: DAG-M-F, Evaluation Type: Evaluation A (Pre-1980)) “inactive; negative”; (Species/Cell Type: Drosophila melanogaster, Assay Type: Aneuploidy, whole sex chromosome loss, chromosome aberrations, Assay Code: DAC-M-F, Evaluation Type: Evaluation A (Pre-1980)) “inactive; negative”; under setting [10], “active; positive”; (Species/Cell Type: Drosophila melanogaster, Assay Type: Sex-linked recessive lethal gene mutation, Assay Code: SRLT, Evaluation Type: Evaluation A (Pre-1980)) “no conclusion”; (Species/Cell Type: Mammalian polychromatic erythrocytes, Assay Type: Micronucleus test, chromosome aberrations, Assay Code: MNTT, Evaluation Type: Evaluation A (Pre-1980)) “no conclusion”; (Species/Cell Type: Nonhuman bone marrow, Assay Type: Chromosome aberrations, in vivo, Assay Code: CY#+D, Dose Response: With dose response, Evaluation Type: Evaluation A (Pre-1980)) “active; positive”. In addition, the mutagenic call runs as follows: under setting [11], “active; positive”; (Species/Cell Type: Salmonella typhimurium, Serratia marcesens, Assay Type: Forward and reverse gene mutation, host-mediated assay, Assay Code: HM2T, Evaluation Type: Evaluation A (Pre-1980)) “no conclusion”; (Species/Cell Type: Vicia faba, Assay Type: Chromosome aberrations, Assay Code: VIC+, Evaluation Type: Evaluation A (Pre-1980)) “active; positive”.

As for `O=S(=O)(O)c1ccc(O)c(N=Nc2c(O)ccc3ccccc23)c1`, the mutagenic call under setting [12] was “no conclusion”.

As for `CN(N=O)C(=O)Oc1cccc2ccccc12`, the mutagenic call by setting is: (Species/Cell Type: Bacillus subtilis (H17 vs M45T), Assay Type: Rec-assay, spot test, DNA effects (bacterial DNA repair), Assay Code: REX+, Evaluation Type: Evaluation A (Pre-1980)) “active; positive”; (Species/Cell Type: Escherichia coli WP2, Assay Type: Tryptophan reverse gene mutation, Assay Code: WP2+, Evaluation Type: Evaluation A (Pre-1980)) “active; positive”; under setting [3], “active; positive”; (Species/Cell Type: Saccharomyces cerevisiae, Assay Type: Mitotic recombination or gene conversion, Assay Code: YEC+, Evaluation Type: Evaluation A (Pre-1980)) “active; positive”; under setting [5], “active; positive”.

Regarding `FC(F)OC(Cl)C(F)(F)F` (stereo not drawn), the mutagenic call under setting [2] was “inactive; negative”; the mutagenic call (Species/Cell Type: Nonhuman, Assay Type: Sister-chromatid exchange (SCE) in vitro, Assay Code: SC2T, Evaluation Type: Evaluation B (Post-1980)) was “no conclusion”; the mutagenic call under setting [12] is recorded as “no conclusion”.

For the compound `O=C[C@H](O)[C@@H](O)[C@H](O)[C@H](S)CO`, the mutagenic call (Species/Cell Type: Rodents, Sex: Male, Assay Type: Dominant lethal test, Assay Code: DLT-, Evaluation Type: Evaluation A (Pre-1980)) was “inactive; negative”.

For `CC(=O)N(C)N=O`, the mutagenic call under setting [10] was “active; positive”; the mutagenic call (Species/Cell Type: Drosophila melanogaster, Sex: Male, Assay Type: Heritable translocation test, chromosome aberrations, Assay Code: DHTT, Evaluation Type: Evaluation A (Pre-1980)) was “no conclusion”; the mutagenic call (Species/Cell Type: Saccharomyces cerevisiae, Assay Type: Forward gene mutation, Assay Code: YEF+, Evaluation Type: Evaluation A (Pre-1980)) was “active; positive”; the mutagenic call under setting [11] was “active; positive”.

On to `c1ccc2c(c1)ccc1cc3ccc4ccccc4c3cc12`, for which the mutagenic call under setting [8] is “active; positive”.

Consider `C1N2CN3CN1CN(C2)C3`, for which, under setting [1], the mutagenic call is “active; positive”.
